Measurements taken from patent publication US20260165948A1, “A COMPOSITION FOR SKIN REGENERATION COMPRISING A CULTURE MEDIUM OF TONSIL-DERIVED MESENCHYMAL STEM CELLS, THE ANTIOXIDANT EFFECT OF WHICH IS ENHANCED BY N-ACETYLCYSTEINE (NAC)” (priority 2023, published 2026).

Tests used:
[1] = test system: tonsil-derived human MSCs (hMSC-T, passage 6); assay: Cell viability upon NAC treatment (WST, absorbance at 450 nm) with PYBR challenge; type: cell-based; details: NAC pretreatment 10 mM and 20 mM for 24 hours, then PYBR 5, 10, 20 μg/mL for 24 hours; FIG. 3
Protocol: In order to evaluate cell viability upon NAC treatment, tonsil-derived human MSCs (hMSC-T, passage 6) were seeded in a culture medium at a density of 1×10^3 cells/well. On the following day, NAC was treated at concentrations of 10 mM and 20 mM for 24 hours. Thereafter, the cells were washed with PBS and the medium was replaced, followed by treatment with PYBR at concentrations of 5, 10, and 20 μg/mL. After 24 hours, the cells were washed three times with PBS and transferred to fresh medium (100 μL) containing 10 μL of WST solution, and incubated at 37° C. for 2 hours in the dark. Absorbance at 450 nm was then measured to evaluate cell viability (FIG. 2). A group not treated with NAC was used as a positive control.

[2] = test system: tonsil-derived human MSCs (hMSC-T, passage 6); assay: Antioxidant activity (ROS assay) with PYBR challenge; type: cell-based; details: NAC pretreatment 10 mM and 20 mM for 24 hours, then PYBR 5, 10, 20 μg/mL for 24 hours; FIG. 5
Protocol: In order to evaluate antioxidant activity upon NAC treatment, tonsil-derived human MSCs (hMSC-T, passage 6) were seeded in a culture medium at a density of 1×10^4 cells/well. On the following day, NAC was treated at concentrations of 10 mM and 20 mM for 24 hours. Thereafter, the cells were washed with PBS and the medium was replaced, followed by treatment with PYBR at concentrations of 5, 10, and 20 μg/mL. After 24 hours, the cells were washed three times with PBS and incubated in 100 μL of ROS working solution at 37° C. for 30 minutes in the dark. Absorbance was then measured at 488/525 nm (FIG. 4). A group not treated with NAC was used as a positive control.

[3] = test system: tonsil-derived human MSCs; assay: Determination of NAC pretreatment concentration (cell viability); details: NAC 10 mM, pretreatment for 24 hours; FIG. 1
Protocol: In order to determine the concentration of NAC for pretreatment of tonsil-derived human MSCs, the tonsil-derived human MSCs were pretreated with NAC prepared in Example 1 at concentrations of 2, 4, 6, 8, 10, 15, and 100 mM for 24 hours, and then cell viability was evaluated.

CC(=O)NC(CS)C(=O)O (stereo not drawn) [NAC, 2-acetamido-3-sulfanylpropanoic acid]
cell viability after PYBR treatment [1]: significantly restored cell viability | ROS levels after PYBR treatment [2]: significantly reduced ROS levels | cytotoxicity (cell viability) [3]: no cytotoxicity was observed
